According to patent US9527852B2 (Neuropore Therapies, Inc., priority 2012, dated 2016):

Experiments:
[1] = test system: neuronal cells infected with LV-α-synuclein; experiment: Calcein assay of membrane integrity (FLIPR); assay type: cell-based; conditions: for Percent reversal of α-Syn mediated disruption of cell integrity (0.01 μM test compound): calcein assay
Method: (§1) Next, to ascertain the effects on neuronal activity, cells were infected with LV-α-synuclein for 24 h, treated with Example 2 at 0, 0.01, 0.1 and 1 μM for 24 h in serum free media, loaded with Fluo-4 or calcein, and analyzed by FLIPR assay to determine Ca^2+ and calcein levels. […] Finally, to examine the effects Example 2 on neuronal survival, an MTT cell viability assay was performed. […] All cell free and cell based assays were repeated at least 3 times and experiments were performed blinded to sample identity.

Recombinant α-synuclein = Recombinant α-synuclein (Homo sapiens, UniProt P37840); experiment: Cell-free α-synuclein aggregation assay (SDS-PAGE, immunoblot); assay type: biochemical; conditions: 10 μM α-synuclein, 37° C. 16 h then 56° C. 6 h, immunoblot (FIG. 1)
Method: Recombinant α-synuclein (10 μM) are incubated at 37° C. for 16 h and then at 56° C. for 6 h with test compound. […] After incubation, the mixture is run on a SDS-PAGE gel, followed by immunoblot testing with α-synuclein antibodies.

[2] = target: T1, α-synuclein (wild type) expressed by lentivirus in a neuronal cell line (Homo sapiens, UniProt P37840); experiment: Cell-based α-synuclein aggregation by immunoblot; conditions: soluble and insoluble fractions; test compound 0, 0.1, 1 and 10 μM for 24 h
T1 construct: expressed in transfected cells

[3] = target: T1, α-synuclein (wild type) expressed by lentivirus in a neuronal cell line; experiment: Cell-based α-synuclein accumulation by confocal microscopy; conditions: test compound 0, 0.1, 1 and 10 μM for 24 h (FIG. 2)
[4] = test system: Neuronal cells expressing high levels of α-synuclein; experiment: Neurite outgrowth (Tubulin III antibody); assay type: cell-based; conditions: 0.1 and 1.0 μM (FIG. 3A)
[5] = test system: neuronal cells infected with LV-α-synuclein; experiment: Ca2+ levels by FLIPR assay (Fluo-4); assay type: cell-based; conditions: 0, 0.01, 0.1 and 1 μM for 24 h in serum free media, Fluo-4 (FIG. 3B)
Method: as §1

neuronal cells = experiment: MTT cell viability assay; assay type: cell-based
Method: as §1

Which “Percent reversal of α-Syn mediated disruption of cell integrity (0.01 μM test compound)” value (shortened to “Percent reversal”) [1] does the source give for `CCCCc1cc(OCc2c[nH]c3ccccc23)cc(OC(=O)NCCN2CCN(C)CC2)c1` [Example 1] here?
Its value is 26.8%.

What does the source list for `CCCCc1cc(NC(=O)NCCN2CCN(C)CC2)cc(O)c1Cc1c[nH]c2ccccc12` [Example 2, 1-(4-((1H-Indol-3-yl)methyl)-3-butyl-5-hydroxyphenyl)-3-(2-(4-methylpiperazin-1-yl)ethyl)urea]?
inhibition of aggregation of α-synuclein into oligomers (Recombinant α-synuclein): capable of inhibiting the aggregation of α-synuclein into oligomers in a concentration-dependent manner; reduction in the levels of aggregates in the various fractions (immunoblot) [2]: 50-60%; reduction in the level of aggregates in the neuronal cell bodies and neurites (confocal microscopy) [3]: 60-65%; effect on neurite extension and cellular morphology [4]: ameliorated the deleterious effects on neurite extension and improved cellular morphology; effect on Ca2+ levels [5]: restored concentrations of Ca^2+ to those in cells not infected with LV-α-synuclein; effect on calcein retention in the cytoplasm ([1]; 0, 0.01, 0.1 and 1 μM for 24 h in serum free media (FIG. 3C)): reversed the effect of α-synuclein on levels of calcein; Percent reversal of α-Syn mediated disruption of cell integrity (0.01 μM test compound) [1]: 34.1%; toxicity in MTT cell viability assay (neuronal cells; at 10 μM (FIG. 3D)): mild toxicity; toxic effects in MTT cell viability assay (neuronal cells; doses ranging from 0.1-10 μM (FIG. 3D)): no toxic effects

How did the “Percent reversal” value [1] turn out when `CCc1cc(NC(=O)NCCN2CCN(C)CC2)ccc1Cc1c[nH]c2ccccc12` [Example 3, 1-(4-((1H-indol-3-yl)methyl)-3-ethylphenyl)-3-(2-(4-methylpiperazin-1-yl)ethyl)urea] was run?
The value was 18.9%.

With `CCc1cc(NC(=O)NCCN)ccc1Cc1c[nH]c2ccccc12` [Example 4, 1-(4-((1H-indol-3-yl)methyl)-3-ethylphenyl)-3-(2-aminoethyl)urea] as the compound, how does the “Percent reversal” value [1] read?
The value was 25.9%.

With `CCc1cc(NC(=O)NCCN2CCNCC2)ccc1Cc1c[nH]c2ccccc12` [Example 5, 1-(4-((1H-Indol-3-yl)methyl)-3-ethylphenyl)-3-(2-(piperazin-1-yl)ethyl)urea] as the compound, how does the “Percent reversal” value [1] read?
The value was 89.5%.

Which “Percent reversal” value [1] does the source give for `CCc1cc(NC(=O)NCCc2cnc[nH]2)ccc1Cc1c[nH]c2ccccc12` [Example 6, 1-(2-(1H-imidazol-5-yl)ethyl)-3-(4-((1H-indol-3-yl)methyl)-3-ethylphenyl)urea] here?
Its value is 37.5%.
